Laboratory results from patent US9469652B2, “ERK inhibitors” (Eli Lilly and Company, priority 2014, dated 2016).

Columns and labels:
[1] = system: human colorectal cancer cells HCT116; assay: Xenograft tumor model HCT116; type: in vivo, female athymic nude mice; details: oral gavage; for Delta T/C % or Regr %: negative = regression
Protocol: (§1) The purpose of this assay is to measure reduction in tumor volume in response to test compound administration. Expand human colorectal cancer cells HCT116 (ATCC, # CCL-247) in culture, harvest and inject 5×10e^6 cells in 200 μL of 1:1 HBSS+matrigel solution subcutaneously on to the rear right flank of female athymic nude mice (22-25 g, Harlan Laboratories). Expand human pancreatic cancer cells MIA PACA-2 (ATCC, # CRL-1420) or human non-small cell lung cancer cells CALU-6 (ATCC, #HTB-56) or human colorectal cancer cells COLO-205 (ATCC, #CCL-222) in culture, harvest and inject 5×10e^6 cells in 200 μL of 1:1 HBSS+matrigel solution subcutaneously on to the rear right flank of female athymic nude mice (22-25 g, Harlan Laboratories). Measure tumor growth and body weight twice per week beginning the seventh day after the implantation. When tumor sizes reach 200-400 mm^3, randomize animals and group into groups of eight to ten animals. Prepare test compound in an appropriate vehicle (vehicle: 1% HEC/0.25% Tween 80/0.05% Antifoam) and administer by oral gavage for 14 to 21 days. Tumor response is determined by tumor volume measurement performed twice a week during the course of treatment. Body weight is taken as a general measure of toxicity.
(§2) A compound within the scope of invention is tested in this assay run substantially as above.

ERK2 = biological target: T1, ERK2 (Homo sapiens, UniProt P28482); assay: ERK2 Kinase Assay (TR-FRET); type: biochemical; details: Abs_IC50, ATP 10 μM, GFP-ATF2 substrate; ±0.24, n=7
T1 construct: purchased Invitrogen PV3595B
T1 sequence (P28482 whole entry): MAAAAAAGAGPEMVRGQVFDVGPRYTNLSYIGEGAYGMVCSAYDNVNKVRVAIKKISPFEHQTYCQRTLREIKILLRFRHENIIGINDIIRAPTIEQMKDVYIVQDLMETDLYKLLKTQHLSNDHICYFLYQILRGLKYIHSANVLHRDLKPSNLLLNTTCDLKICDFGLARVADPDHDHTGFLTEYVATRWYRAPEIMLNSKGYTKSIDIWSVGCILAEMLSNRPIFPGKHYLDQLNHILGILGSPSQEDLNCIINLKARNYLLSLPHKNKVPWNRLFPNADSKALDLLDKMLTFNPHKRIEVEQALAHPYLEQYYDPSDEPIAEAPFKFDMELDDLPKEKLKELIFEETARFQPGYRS
Protocol: The purpose of this assay is to measure the ability of compounds to inhibit ERK2 kinase activity. Perform the ERK2 kinase assay in vitro using a TR-FRET assay. Start all reactions (12.5 μL) by adding 5 μL of ERK2 enzyme (Invitrogen, #PV3595B, final conc 50 ng/mL) plus substrate GFP-ATF2 (Invitrogen, #PV4445, final conc 0.2 μM), 5 μL of ATP solution (Invitrogen, #PV3227, final conc 10 μM) prepared in kinase buffer (50 mM Hepes pH 7.4, 5 mM MgCl2, 0.1 mM EGTA, 0.01% Triton X-100, 1 mM DTT) and 2.5 μL of testing compounds in DMSO solution (final 4%, v/v) in a 384-well PROXIPLATE™ (Perkin Elmer, #GRN6260). Incubate reactions at room temperature for 60 minutes. Stop reactions by addition of 12.5 μL of stop buffer (10 mM EDTA, 2 nM Tb-anti-pATF2 (pThr71) antibody, Invitrogen, #PV4448) in TR-FRET dilution buffer (Invitrogen, #PV3574). Incubate the plates at room temperature for an additional 60 minutes and read ON ENVISION® (PerkinElmer) plate reader at the excitation wavelength of 340 nm Calculate a TR-FRET ratio by dividing the GFP acceptor emission signal (at 520 nm) by the Tb donor emission signal (at 495 nm). Calculate percent inhibition using compound wells relative to on-plate Max (DMSO control) and Min (No enzyme added) control wells TR-FRET ratio data {% inhibition=100−[(test compound−median Min)/(median Max−median Min)×100]}. […]

[2] = system: human non-small cell lung cancer cells NCI-H441 (KRAS_G12V); assay: In vivo combination study, NCI-H441 NSCLC xenograft model; details: single agent
Protocol: More specifically, the compound of Example 1 is tested in combination with either the pan-RAF inhibitor compound or the CDK4/6 inhibitor compound in HCT116, a KRAS mutant colorectal cancer xenograft model. Also, the compound of Example 1 is tested in combination with either the CDK4/6 inhibitor compound or DC101 in NCI-H441, A549, and NCI-H2122, KRAS mutant non-small cell lung cancer (NSCLC) xenograft models.
Combination efficacy is also tested in three KRAS mutant NSCLC xenograft models including A549 (KRAS_G12S) in SCID mice as well as NCI-H441 (KRAS_G12V) and NCI-H2122 (KRAS_G12C) in athymic nude mice. Expand human non-small cell lung cancer cells NCI-H441 (ATCC, #CRL-5807) and NCI-H2122 (ATCC, #CRL-5985) in culture, harvest and inject 5×10e^6 cells in 200 μL of 1:1 HBSS+matrigel solution subcutaneously on to the rear right flank of female athymic nude mice (20-22 gm, Harlan Laboratories). Expand human non-small cell lung cancer cells A549 (ATCC, #CC1-185) in culture, harvest and inject 5×10e^6 cells in 200 μL of 1:1 HBSS+matrigel solution subcutaneously on to the rear right flank of female CB-17 SCID mice (18-20 gm, Taconic Farms). For all cell lines, measure tumor growth and body weight twice per week beginning the seventh day after the implantation. When average tumor sizes reach 200-300 mm^3, randomize animals and group into groups of five to seven animals. Prepare test compound in an appropriate vehicle (see below) and administer by oral gavage (compound of Example 1 and the CDK4/6 inhibitor compound) or intraperitoneally (DC101) for 21 to 28 days. Tumor response is determined by tumor volume measurement performed twice a week during the course of treatment. Vehicle used in these studies is 1% HEC/0.25% Tween® 80/0.05% Antifoam. The compound of Example 1 is formulated in 1% HEC/0.25% Tween® 80/0.05% Antifoam and the CDK4/6 inhibitor compound is formulated in 1% HEC in 25 mM sodium phosphate buffer, pH 2. […] In the same NCI-H441 xenograft model, DC101 in phosphate buffer is also administered intraperitoneally twice per week (BIW) as a single agent or in combination with the compound of Example 1, 50 mpk, QD for 28 days.

[3] = system: human non-small cell lung cancer cells CALU-6; assay: Xenograft tumor model CALU-6; type: in vivo, female athymic nude mice; details: oral gavage; for Delta T/C % or Regr %: negative = regression
Protocol: as §1, §2

Cn1nccc1Nc1nccc(-c2cc3c(s2)C(C)(C)N(CCN2CCOCC2)C3=O)n1 [Example 1, 6,6-Dimethyl-2-{2-[(1-methyl-1H-pyrazol-5-yl)amino]pyrimidin-4-yl}-5-[2-(morpholin-4-yl)ethyl]-5,6-dihydro-4H-thieno[2,3-c]pyrrol-4-one]
TGI % ([1]; 25 mg/kg QD): 108%
Delta T/C % or Regr % ([1]; 25 mg/kg QD): −8%
TGI % ([1]; 50 mg/kg QD): 89%
Delta T/C % or Regr % ([1]; 50 mg/kg QD): 11%
TGI % ([1]; 100 mg/kg QD): 125%
Delta T/C % or Regr % ([1]; 100 mg/kg QD): −25%
IC50 (ERK2): 5.24 nM
Regression % ([2]; 50 mg/kg QD, oral, 28 days): 1%
tumor growth inhibition ([2]; 50 mpk): 101%
TGI % ([3]; 12.5 mg/kg QD): 78%
Delta T/C % or Regr % ([3]; 12.5 mg/kg QD): 22%
TGI % ([3]; 25 mg/kg QD): 86%
Delta T/C % or Regr % ([3]; 25 mg/kg QD): 14%
TGI % ([3]; 50 mg/kg QD): 131%
Delta T/C % or Regr % ([3]; 50 mg/kg QD): −31%
TGI % ([3]; 100 mg/kg QD): 177%
Delta T/C % or Regr % ([3]; 100 mg/kg QD): −77%
